Drawing on patent US12590062B2, “PD-1/PD-L1 inhibitors” (Gilead Sciences, Inc., priority 2017, dated 2026), this text covers IC50 and EC50 for 17 molecules.

The target in assay [1] is PD-1/PD-L1 (Homo sapiens, UniProt Q9NZQ7). As to the kind of experiment: PD-1/PD-L1 biochemical protein-protein interaction assay (ALPHA). Format: binding. The following applies: 0.3 nM His tagged PD-L1, 2.5 nM biotinylated Fc-PD-1, 60 minutes at 25° C., read-out: IC50 PD-L1-PD-1 Alpha IC50-mono PD-L1-fcP-D1. A digest of the protocol: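 Compound blockade of the PD-1/PD-L1 extracellular-domain interaction measured as reduced ALPHA signal after 60 min at 25 °C, pH 7.4 Hepes buffer with EDTA, Tween 20 and BSA. Final proteins: His-tagged PD-L1 0.3 nM, biotinylated Fc-PD-1 2.5 nM; four-parameter curve fit gives IC50.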

Assay [2] addresses T1, PD-1/PD-L1 interaction (Homo sapiens, UniProt Q9NZQ7).
T1 construct: expressed in transfected cells; host or cells: CHO cells (aAPC-PD-L1) co-cultured with Jurkat cells overexpressing PD-1 and an NFAT-luciferase reporter
Put plainly: PD-1/PD-L1 NFAT reporter co-culture assay. The format is cell-based. The following applies: Jurkat PD-1 NFAT-luciferase cells co-cultured with aAPC-PD-L1 CHO cells, 6 hrs at 37° C.; read-out: EC50 NFAT Luciferase. A digest of the protocol: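 Restoration of TCR-driven NFAT luciferase signal: 6 h, 37 °C co-culture of PD-1 Jurkat reporter cells (pre-mixed with compound) on overnight-seeded PD-L1/anti-CD3 CHO monolayer. ONE-Glo luminescence; dose-response fitted to four-parameter equation for EC50.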

T1 sequence (Q9NZQ7 19-290): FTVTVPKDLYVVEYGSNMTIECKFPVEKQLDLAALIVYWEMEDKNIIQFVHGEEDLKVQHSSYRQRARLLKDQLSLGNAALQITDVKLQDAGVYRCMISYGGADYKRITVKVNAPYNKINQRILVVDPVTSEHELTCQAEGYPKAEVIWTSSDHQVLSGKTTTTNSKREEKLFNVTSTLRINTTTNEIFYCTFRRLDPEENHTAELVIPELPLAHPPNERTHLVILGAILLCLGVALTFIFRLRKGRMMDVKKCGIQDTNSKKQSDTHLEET
Sequence of PD-1/PD-L1 (Q9NZQ7 19-238 limits assumed): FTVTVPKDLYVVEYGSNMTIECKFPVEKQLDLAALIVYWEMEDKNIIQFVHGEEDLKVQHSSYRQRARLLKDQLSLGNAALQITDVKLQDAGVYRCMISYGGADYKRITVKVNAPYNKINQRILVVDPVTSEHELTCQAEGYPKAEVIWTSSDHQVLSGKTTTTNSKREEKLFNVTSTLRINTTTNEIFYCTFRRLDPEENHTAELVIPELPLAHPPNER

As for `Cc1c(COc2nc(OCc3cncs3)c(CNC[C@@H](O)CC(=O)O)cc2Br)cccc1-c1cccc(COc2nc(OCc3cncs3)c(CNC[C@@H](O)CC(=O)O)cc2Br)c1C` [Example 138, (3S,3′S)-4,4′-((((((2,2′-dimethyl-[1,1′-biphenyl]-3,3′-diyl)bis(methylene))bis(oxy))bis(5-bromo-2-(thiazol-5-ylmethoxy)pyridine-6,3-diyl))bis(methylene))bis(azanediyl))bis(3-hydroxybutanoic acid)], the IC50 (usually the concentration needed to halve the response being measured) in assay [1] was 1 nM. Also, the EC50 – broadly, the midpoint of the concentration-response curve – in assay [2] is 392 nM.
For the molecule `Cc1c(COc2nc(OCc3cnnn3Cc3ccccc3)c(CNC[C@@H](O)CC(=O)O)cc2Br)cccc1-c1cccc(COc2nc(OCc3cnnn3Cc3ccccc3)c(CNC[C@@H](O)CC(=O)O)cc2Br)c1C` [Example 139, (3S,3′S)-4,4′-((((((2,2′-dimethyl-[1,1′-biphenyl]-3,3′-diyl)bis(methylene))bis(oxy))bis(2-((1-benzyl-1H-1,2,3-triazol-5-yl)methoxy)-5-bromopyridine-6,3-diyl))bis(methylene))bis(azanediyl))bis(3-hydroxybutanoic acid)], the IC50 in assay [1] came out at 5.1 nM. The EC50 in assay [2] is 23900 nM.
Turning to `Cc1c(COc2nc(OCC3CC3)c(CNC[C@@H](O)CC(=O)O)cc2Br)cccc1-c1cccc(COc2nc(OCC3CC3)c(CNC[C@@H](O)CC(=O)O)cc2Br)c1C` [Example 141, (3S,3′S)-4,4′-((((((2,2′-dimethyl-[1,1′-biphenyl]-3,3′-diyl)bis(methylene))bis(oxy))bis(5-bromo-2-(cyclopropylmethoxy)pyridine-6,3-diyl))bis(methylene))bis(azanediyl))bis(3-hydroxybutanoic acid)], the IC50 in assay [1] is 3.6 nM. In addition, in assay [2], the half-maximal effective concentration (EC50) is not below 50000 nM.
`COC(=O)COc1nc(OCc2cccc(-c3cccc(COc4nc(OCC(=O)OC)c(CNC[C@@H](O)CC(=O)O)cc4Br)c3C)c2C)c(Br)cc1CNC[C@@H](O)CC(=O)O` [Example 150, (3S,3′S)-4,4′-((((((2,2′-dimethyl-[1,1′-biphenyl]-3,3′-diyl)bis(methylene))bis(oxy))bis(5-bromo-2-(2-methoxy-2-oxoethoxy)pyridine-6,3-diyl))bis(methylene))bis(azanediyl))bis(3-hydroxybutanoic acid)]: the IC50 in assay [1] turned out to be 0.5 nM. For the same molecule, in assay [2], the EC50 was not below 50000 nM.
Take `C=CCOc1nc(OCc2cccc(-c3cccc(COc4nc(OCC=C)c(CNC[C@@H](O)CC(=O)O)cc4Br)c3C)c2C)c(Br)cc1CNC[C@@H](O)CC(=O)O` [Example 151, (3S,3′S)-4,4′-((((((2,2′-dimethyl-[1,1′-biphenyl]-3,3′-diyl)bis(methylene))bis(oxy))bis(2-(allyloxy)-5-bromopyridine-6,3-diyl))bis(methylene))bis(azanediyl))bis(3-hydroxybutanoic acid)]: the IC50 in assay [1] was determined as 2.2 nM. In assay [2], the EC50 is not below 50000 nM.
Consider `Cc1c(COc2nc(OCC(F)(F)F)c(CNC[C@@H](O)CC(=O)O)cc2Br)cccc1-c1cccc(COc2nc(OCC(F)(F)F)c(CNC[C@@H](O)CC(=O)O)cc2Br)c1C` [Example 154, (3S,3′S)-4,4′-((((((2,2′-dimethyl-[1,1′-biphenyl]-3,3′-diyl)bis(methylene))bis(oxy))bis(5-bromo-2-(2,2,2-trifluoroethoxy)pyridine-6,3-diyl))bis(methylene))bis(azanediyl))bis(3-hydroxybutanoic acid)], for which, in assay [1], the IC50 was 3.8 nM. Besides, the EC50 in assay [2] is not below 50000 nM.
`Cc1nc(OCc2cccc(-c3cccc(COc4ccc(CNC[C@@H](O)CC(=O)O)c(C)n4)c3C)c2C)ccc1CNC[C@@H](O)CC(=O)O` [Example 156, (3S,3′S)-4,4′-((((((2,2′-dimethyl-[1,1′-biphenyl]-3,3′-diyl)bis(methylene))bis(oxy))bis(2-methylpyridine-6,3-diyl))bis(methylene))bis(azanediyl))bis(3-hydroxybutanoic acid)]: in assay [1], the IC50 stood at 2.3 nM. The EC50 in assay [2] worked out at 34200 nM.
On the same counts, the results for `Cc1c(COc2ccc(CNC[C@@H](O)CC(=O)O)c(OCCN3CCOCC3)n2)cccc1-c1cccc(COc2ccc(CNC[C@@H](O)CC(=O)O)c(OCCN3CCOCC3)n2)c1C` [Example 158, (3S,3′S)-4,4′-((((((2,2′-dimethyl-[1,1′-biphenyl]-3,3′-diyl)bis(methylene))bis(oxy))bis(2-(2-morpholinoethoxy)pyridine-6,3-diyl))bis(methylene))bis(azanediyl))bis(3-hydroxybutanoic acid)] are 2 nM and 28100 nM.
Regarding `Cc1c(COc2cc(OCc3cncc(C#N)c3)c(CNC[C@@H](O)C(=O)O)cc2Cl)cccc1-c1cccc(COc2cc(OCc3cncc(C#N)c3)c(CNC[C@@H](O)C(=O)O)cc2Cl)c1C` [Example 161, (2R,2′R)-3,3′-((((((2,2′-dimethyl-[1,1′-biphenyl]-3,3′-diyl)bis(methylene))bis(oxy))bis(5-chloro-2-((5-cyanopyridin-3-yl)methoxy)-4,1-phenylene))bis(methylene))bis(azanediyl))bis(2-hydroxypropanoic acid)], in assay [1], the IC50 is 2.8 nM. Besides, the concentration giving a half-maximal response (EC50) in assay [2] worked out at 310 nM.
The matching figures for `Cc1c(COc2cc(OCc3cncc(C#N)c3)c(CNCc3nnn[nH]3)cc2Cl)cccc1-c1cccc(COc2cc(OCc3cncc(C#N)c3)c(CNCc3nnn[nH]3)cc2Cl)c1C` [Example 163, 5,5′-((((((2,2′-dimethyl-[1,1′-biphenyl]-3,3′-diyl)bis(methylene))bis(oxy))bis(6-((((1H-tetrazol-5-yl)methyl)amino)methyl)-4-chloro-3,1-phenylene))bis(oxy))bis(methylene))dinicotinonitrile]: 0.6 nM and 343 nM.
On the same counts, the results for `Cc1c(COc2cc(OCc3cncc(C#N)c3)c(CNCCCC(=O)O)cc2Cl)cccc1-c1cccc(COc2cc(OCc3cncc(C#N)c3)c(CNCCCC(=O)O)cc2Cl)c1C` [Example 164, 4,4′-((((((2,2′-dimethyl-[1,1′-biphenyl]-3,3′-diyl)bis(methylene))bis(oxy))bis(5-chloro-2-((5-cyanopyridin-3-yl)methoxy)-4,1-phenylene))bis(methylene))bis(azanediyl))dibutyric acid] are 0.2 nM and 500 nM.
On the same counts, the results for `Cc1c(COc2ccc(CNC[C@@H](O)CC(=O)O)cc2C#N)cccc1-c1cccc(COc2ccc(CNC[C@@H](O)CC(=O)O)cc2C#N)c1C` [Example 177, (3S,3′S)-4,4′-((((((2,2′-dimethyl-[1,1′-biphenyl]-3,3′-diyl)bis(methylene))bis(oxy))bis(3-cyano-4,1-phenylene))bis(methylene))bis(azanediyl))bis(3-hydroxybutanoic acid)] are 0.1 nM and 20600 nM.
Regarding `COc1cc(C(=O)N2CCc3c(-c4cccc5c4CCN5C(=O)c4ccc(CNC[C@@H](O)CC(=O)O)c(OC)c4)cccc32)ccc1CNC[C@@H](O)CC(=O)O` [Example 180, (3S,3′S)-4,4′-(((([4,4′-biindoline]-1,1′-dicarbonyl)bis(2-methoxy-4,1-phenylene))bis(methylene))bis(azanediyl))bis(3-hydroxybutanoic acid)], the IC50 in assay [1] came to 4.6 nM. In addition, the EC50 in assay [2] came to 24800 nM.
`O=C(O)C[C@H](O)CNCc1ccc(C(=O)N2CCc3c(-c4cccc5c4CCN5C(=O)c4ccc(CNC[C@@H](O)CC(=O)O)cc4)cccc32)cc1` [Example 181, (3S,3′S)-4,4′-(((([4,4′-biindoline]-1,1′-dicarbonyl)bis(4,1-phenylene))bis(methylene))bis(azanediyl))bis(3-hydroxybutanoic acid)]: the IC50 in assay [1] turned out to be 3.3 nM. Also, the EC50 in assay [2] was 30900 nM.
Turning to `COc1nc(OCc2cccc(-c3cccc(COc4ccc(CNCCO)c(OC)n4)c3Cl)c2Cl)ccc1CNCCO` [Example 186, 2,2′-((((((2,2′-Dichloro-[1,1′-biphenyl]-3,3′-diyl)bis(methylene))bis(oxy))bis(2-methoxypyridine-6,3-diyl))bis(methylene))bis(azanediyl))bis(ethan-1-ol)], in assay [1], the IC50 came out at 18.8 nM. In assay [2], the 50% effective concentration (EC50) is 1510 nM.
As for `COc1nc(OCc2cccc(-c3cccc(COc4ccc(CNC[C@@H](O)CC(=O)O)c(OC)n4)c3Cl)c2Cl)ccc1CNC[C@@H](O)CC(=O)O` [Example 187, (3S,3′S)-4,4′-((((((2,2′-Dichloro-[1,1′-biphenyl]-3,3′-diyl)bis(methylene))bis(oxy))bis(2-methoxypyridine-6,3-diyl))bis(methylene))bis(azanediyl))bis(3-hydroxybutanoic acid)], the half-inhibitory concentration (IC50) in assay [1] worked out at 0.6 nM. Also, the EC50 in assay [2] was 3200 nM.
With `COc1nc(OCc2cccc(-c3cccc(COc4ccc(CNC[C@H](O)CC(=O)O)c(OC)n4)c3Cl)c2Cl)ccc1CNC[C@H](O)CC(=O)O` [Example 188, (3R,3′R)-4,4′-((((((2,2′-Dichloro-[1,1′-biphenyl]-3,3′-diyl)bis(methylene))bis(oxy))bis(2-methoxypyridine-6,3-diyl))bis(methylene))bis(azanediyl))bis(3-hydroxybutanoic acid)], in assay [1], the IC50 was determined as 0.3 nM. For the same molecule, in assay [2], the EC50 came out at 1550 nM.
